This passage reports IC50 results from US9518052B2, “Pyrazolopyridines and pyrazolopyrimidines” (Pfizer Inc., priority 2014, dated 2016).

Common to all, as to type: biochemical
Settings in all cases: Caliper assay at 1 mM ATP

One experiment concerns the target JAK1 (Homo sapiens (Human), UniProt P23458). In words: JAK Caliper Enzyme Assay at 1 mM ATP (JAK1). The procedure: (§1) JAK Caliper Enzyme Assay at 1 mM ATP
(§2) Test article was solubilized in dimethyl sulfoxide (DMSO) to a stock concentration of 30 mM. An 11-point half log dilution series was created in DMSO with a top concentration of 600 μM. […] The compound plates were diluted 1 to 60 resulting in a top final assay compound concentration of 10 μM and a 2% DMSO concentration.
(§3) Test article and assay controls were added to a 384-well plate. Reaction mixtures contained 20 mM HEPES, pH 7.4, 10 mM magnesium chloride, 0.01% bovine serum albumin (BSA), 0.0005% Tween 20, 1 mM ATP and 1 μM peptide substrate. […] Enzyme concentrations and incubation times were optimized for each new enzyme preps and were modified slightly over time to ensure 20%-30% phosphorylation. The assays were stopped with a final concentration of 10 mM EDTA, 0.1% Coating Reagent and 100 mM HEPES, pH=7.4. The assay plates were placed on a Caliper Life Science Lab Chip 3000 (LC3000) instrument, and each well was sampled using appropriate separation conditions to measure the unphosphorylated and phosphorylated peptide.

For a further experiment, the target named is JAK2 (Homo sapiens (Human), UniProt O60674). Nature of the experiment: JAK Caliper Enzyme Assay at 1 mM ATP (JAK2). Here is the method:
as §1, §2, §3

The next experiment deals with JAK3 (Homo sapiens (Human), UniProt P52333). In words: JAK Caliper Enzyme Assay at 1 mM ATP (JAK3). The procedure: as §1, §2, §3
Sequence of JAK3 (P52333 whole entry, species assumed): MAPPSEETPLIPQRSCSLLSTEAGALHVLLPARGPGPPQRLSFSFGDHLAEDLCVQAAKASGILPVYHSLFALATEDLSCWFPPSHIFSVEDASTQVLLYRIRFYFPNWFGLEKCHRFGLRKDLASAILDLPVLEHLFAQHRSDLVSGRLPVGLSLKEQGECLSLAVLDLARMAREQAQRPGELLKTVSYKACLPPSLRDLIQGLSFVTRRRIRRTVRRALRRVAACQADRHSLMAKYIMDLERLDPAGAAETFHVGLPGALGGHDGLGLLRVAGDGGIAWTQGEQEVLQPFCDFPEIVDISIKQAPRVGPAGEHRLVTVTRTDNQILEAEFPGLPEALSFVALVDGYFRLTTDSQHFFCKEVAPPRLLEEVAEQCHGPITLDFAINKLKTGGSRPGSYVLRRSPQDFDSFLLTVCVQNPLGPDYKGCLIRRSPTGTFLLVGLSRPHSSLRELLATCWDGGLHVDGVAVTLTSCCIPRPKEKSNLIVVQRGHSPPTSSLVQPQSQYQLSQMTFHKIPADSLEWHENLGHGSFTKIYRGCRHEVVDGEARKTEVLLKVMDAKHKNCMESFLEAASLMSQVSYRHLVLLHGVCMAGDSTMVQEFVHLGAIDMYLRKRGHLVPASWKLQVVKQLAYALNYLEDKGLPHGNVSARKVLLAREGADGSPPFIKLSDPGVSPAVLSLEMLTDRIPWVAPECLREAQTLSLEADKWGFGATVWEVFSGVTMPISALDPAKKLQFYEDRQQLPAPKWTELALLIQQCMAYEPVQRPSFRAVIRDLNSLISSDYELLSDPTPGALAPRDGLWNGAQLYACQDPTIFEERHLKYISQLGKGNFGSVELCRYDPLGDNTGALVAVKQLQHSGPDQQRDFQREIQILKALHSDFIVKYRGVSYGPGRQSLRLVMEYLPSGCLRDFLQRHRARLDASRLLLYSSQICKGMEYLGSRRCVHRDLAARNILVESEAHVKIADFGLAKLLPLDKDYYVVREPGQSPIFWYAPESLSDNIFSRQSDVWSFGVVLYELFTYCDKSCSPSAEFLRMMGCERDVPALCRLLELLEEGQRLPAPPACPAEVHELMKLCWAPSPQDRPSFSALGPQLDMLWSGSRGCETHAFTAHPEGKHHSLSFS
For the next experiment, the target named is TYK2 (Homo sapiens (Human), UniProt P29597). Nature of the experiment: JAK Caliper Enzyme Assay at 1 mM ATP (TYK2). Here is the method:
as §1, §2, §3

Structures can show the parent of a compound that is named as a salt.

Sequence of JAK2 (O60674 whole entry, species assumed): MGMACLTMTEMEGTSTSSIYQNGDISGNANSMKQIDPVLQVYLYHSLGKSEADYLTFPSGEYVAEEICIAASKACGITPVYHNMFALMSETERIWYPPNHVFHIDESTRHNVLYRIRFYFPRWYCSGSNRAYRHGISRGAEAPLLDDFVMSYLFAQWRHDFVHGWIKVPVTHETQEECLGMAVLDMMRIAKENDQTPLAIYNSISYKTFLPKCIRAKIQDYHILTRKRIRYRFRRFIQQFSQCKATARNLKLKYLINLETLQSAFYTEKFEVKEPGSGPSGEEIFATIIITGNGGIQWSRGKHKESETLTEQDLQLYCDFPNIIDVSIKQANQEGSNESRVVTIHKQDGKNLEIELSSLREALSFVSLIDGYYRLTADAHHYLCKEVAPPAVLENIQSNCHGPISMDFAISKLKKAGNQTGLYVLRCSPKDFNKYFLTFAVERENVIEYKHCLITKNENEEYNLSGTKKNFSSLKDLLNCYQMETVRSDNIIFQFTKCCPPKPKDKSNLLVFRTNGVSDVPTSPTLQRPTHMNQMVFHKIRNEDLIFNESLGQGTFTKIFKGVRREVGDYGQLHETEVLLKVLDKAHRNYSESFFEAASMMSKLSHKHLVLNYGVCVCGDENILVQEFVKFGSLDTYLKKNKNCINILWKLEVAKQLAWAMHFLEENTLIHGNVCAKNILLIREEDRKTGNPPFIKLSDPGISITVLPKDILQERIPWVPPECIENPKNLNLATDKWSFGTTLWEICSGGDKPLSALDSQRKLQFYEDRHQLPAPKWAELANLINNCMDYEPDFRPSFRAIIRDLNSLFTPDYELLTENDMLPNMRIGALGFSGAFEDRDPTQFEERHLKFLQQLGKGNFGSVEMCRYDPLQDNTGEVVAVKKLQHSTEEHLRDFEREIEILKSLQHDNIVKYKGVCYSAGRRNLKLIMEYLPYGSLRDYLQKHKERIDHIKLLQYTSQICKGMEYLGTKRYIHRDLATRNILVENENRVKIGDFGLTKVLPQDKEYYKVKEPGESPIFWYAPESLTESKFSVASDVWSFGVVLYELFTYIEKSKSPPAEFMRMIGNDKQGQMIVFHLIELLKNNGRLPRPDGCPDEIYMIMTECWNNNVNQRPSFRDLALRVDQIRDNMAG
Sequence of TYK2 (P29597 whole entry, species assumed): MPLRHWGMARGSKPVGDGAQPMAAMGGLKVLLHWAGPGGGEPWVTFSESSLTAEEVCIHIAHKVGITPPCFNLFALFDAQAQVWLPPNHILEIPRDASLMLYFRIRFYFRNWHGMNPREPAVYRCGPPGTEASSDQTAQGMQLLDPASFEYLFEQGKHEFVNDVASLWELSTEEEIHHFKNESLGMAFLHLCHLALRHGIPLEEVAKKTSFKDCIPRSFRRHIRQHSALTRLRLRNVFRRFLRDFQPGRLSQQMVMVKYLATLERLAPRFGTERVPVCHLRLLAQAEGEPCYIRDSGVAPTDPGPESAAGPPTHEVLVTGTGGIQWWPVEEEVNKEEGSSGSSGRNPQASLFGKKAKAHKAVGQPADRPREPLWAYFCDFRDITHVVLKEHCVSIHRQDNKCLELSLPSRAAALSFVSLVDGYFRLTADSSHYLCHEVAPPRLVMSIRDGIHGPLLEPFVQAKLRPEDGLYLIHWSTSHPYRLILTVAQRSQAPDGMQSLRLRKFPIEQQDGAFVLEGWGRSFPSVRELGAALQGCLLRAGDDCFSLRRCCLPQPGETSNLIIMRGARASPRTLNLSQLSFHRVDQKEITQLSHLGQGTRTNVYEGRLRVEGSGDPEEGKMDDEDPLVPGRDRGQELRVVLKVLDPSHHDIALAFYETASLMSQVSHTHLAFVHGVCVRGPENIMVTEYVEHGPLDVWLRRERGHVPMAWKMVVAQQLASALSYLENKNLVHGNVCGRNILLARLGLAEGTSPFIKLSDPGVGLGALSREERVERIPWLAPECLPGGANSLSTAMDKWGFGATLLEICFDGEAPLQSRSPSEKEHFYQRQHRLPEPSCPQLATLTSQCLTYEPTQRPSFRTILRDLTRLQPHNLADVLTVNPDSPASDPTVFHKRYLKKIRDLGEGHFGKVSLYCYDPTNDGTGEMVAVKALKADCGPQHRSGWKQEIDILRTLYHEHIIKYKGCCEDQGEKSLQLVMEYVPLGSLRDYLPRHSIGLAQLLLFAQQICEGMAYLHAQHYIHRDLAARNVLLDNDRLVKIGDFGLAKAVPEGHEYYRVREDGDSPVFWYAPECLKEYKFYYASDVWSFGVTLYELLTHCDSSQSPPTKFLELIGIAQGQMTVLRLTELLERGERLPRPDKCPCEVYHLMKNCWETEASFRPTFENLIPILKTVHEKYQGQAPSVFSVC
Sequence of JAK1 (P23458 whole entry, species assumed): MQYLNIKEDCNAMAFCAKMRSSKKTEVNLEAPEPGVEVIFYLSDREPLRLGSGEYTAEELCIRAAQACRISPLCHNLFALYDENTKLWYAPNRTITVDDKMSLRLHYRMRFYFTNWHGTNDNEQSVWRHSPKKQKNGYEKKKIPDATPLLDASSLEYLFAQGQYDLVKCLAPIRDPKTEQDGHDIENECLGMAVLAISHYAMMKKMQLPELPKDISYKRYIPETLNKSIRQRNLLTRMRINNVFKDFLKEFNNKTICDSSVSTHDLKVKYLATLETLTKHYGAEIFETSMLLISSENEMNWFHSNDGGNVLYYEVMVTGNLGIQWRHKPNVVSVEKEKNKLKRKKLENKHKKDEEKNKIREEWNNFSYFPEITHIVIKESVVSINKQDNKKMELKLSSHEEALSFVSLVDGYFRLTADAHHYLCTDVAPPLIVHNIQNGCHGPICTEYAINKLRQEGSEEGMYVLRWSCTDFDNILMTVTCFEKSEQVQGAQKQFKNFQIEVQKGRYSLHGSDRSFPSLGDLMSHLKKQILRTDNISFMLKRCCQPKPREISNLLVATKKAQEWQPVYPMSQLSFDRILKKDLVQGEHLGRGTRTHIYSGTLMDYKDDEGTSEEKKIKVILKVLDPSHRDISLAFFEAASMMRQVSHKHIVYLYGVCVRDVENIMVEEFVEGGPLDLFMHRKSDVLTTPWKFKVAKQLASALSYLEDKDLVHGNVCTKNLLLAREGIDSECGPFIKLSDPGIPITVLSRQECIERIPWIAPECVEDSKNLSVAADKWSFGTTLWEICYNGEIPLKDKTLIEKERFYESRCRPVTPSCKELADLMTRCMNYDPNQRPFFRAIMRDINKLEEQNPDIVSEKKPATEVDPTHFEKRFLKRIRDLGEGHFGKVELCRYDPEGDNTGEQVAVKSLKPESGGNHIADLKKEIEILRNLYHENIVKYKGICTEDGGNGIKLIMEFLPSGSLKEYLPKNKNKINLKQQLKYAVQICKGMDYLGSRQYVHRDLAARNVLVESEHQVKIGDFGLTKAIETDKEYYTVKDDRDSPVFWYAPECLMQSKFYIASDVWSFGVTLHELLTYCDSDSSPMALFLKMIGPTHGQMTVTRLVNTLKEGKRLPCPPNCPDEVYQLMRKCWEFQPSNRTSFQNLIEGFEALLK

By IC50 is commonly meant the concentration that inhibits the measured activity by half. Lower therefore signals higher potency. On to `CCc1cc(O)c(F)cc1-c1cc2[nH]nc(C(=O)Nc3ccc(C)nc3)c2c(NCc2ccccc2N(C)S(C)(=O)=O)n1` [Example 56, 6-(2-ethyl-5-fluoro-4-hydroxy-phenyl)-4-({2-[methyl(methylsulfonyl)amino]benzyl}amino)-N-(6-methylpyridin-3-yl)-1H-pyrazolo[4,3-c]pyridine-3-carboxamide], for which the IC50 at JAK1 stood at 6.6 nM; against JAK2, 26.1 nM; on JAK3 it was 135 nM; at TYK2, 19.9 nM.
On the same counts, the results for `CCN(c1ccccc1CNc1nc(-c2cc(F)c(O)cc2CC(F)(F)F)cc2[nH]nc(C(N)=O)c12)S(C)(=O)=O` [Example 90, 4-({2-[ethyl(methylsulfonyl)amino]benzyl}amino)-6-[5-fluoro-4-hydroxy-2-(2,2,2-trifluoroethyl)-phenyl]-1H-pyrazolo[4,3-c]pyridine-3-carboxamide] are 2.7 nM, 18.1 nM, 77.1 nM and 23.2 nM.
In the same order, the values of `CCc1cc(O)c(F)cc1-c1cc2[nH]nc(C(=O)NC)c2c(NCc2ccccc2N(C)S(N)(=O)=O)n1` [Example 73, 6-(2-ethyl-5-fluoro-4-hydroxyphenyl)-N-methyl-4-({2-[methyl(sulfamoyl)-amino]benzyl}amino)-1H-pyrazolo[4,3-c]pyridine-3-carboxamide] are 5.4 nM, 18.8 nM, 80.9 nM and 33.9 nM.
On the same counts, the results for `CCN(c1nccnc1CNc1nc(-c2cc(F)c(O)cc2CC(F)(F)F)cc2[nH]nc(C(=O)NC)c12)S(C)(=O)=O` [Example 45, 4-[({3-[ethyl(methyl-sulfonyl)-amino]pyrazin-2-yl}methyl)amino]-6-[5-fluoro-4-hydroxy-2-(2,2,2-trifluoroethyl)phenyl]-N-methyl-1H-pyrazolo[4,3-c]pyridine-3-carboxamide] are 4 nM, 18.9 nM, 68.7 nM and 148 nM.
In the case of `CCc1cc(O)c(F)cc1-c1cc2[nH]ncc2c(NCc2cc(C)ccc2N(C)S(C)(=O)=O)n1` [Example 132, N-[2-({[6-(2-ethyl-5-fluoro-4-hydroxyphenyl)-1H-pyrazolo[4,3-c]pyridin-4-yl]amino}methyl)-4-methylphenyl]-N-methylmethanesulfonamide hydrochloride], the IC50 was 19 nM against JAK1, 31.4 nM against JAK2, 18.4 nM against JAK3 and 1290 nM at TYK2.
On the same counts, the results for `CNC(=O)c1n[nH]c2cc(-c3cc(F)c(O)cc3CC(F)(F)F)nc(NCc3cc(C)ccc3N(C)S(C)(=O)=O)c12` [Example 11, 6-[5-fluoro-4-hydroxy-2-(2,2,2-trifluoroethyl)phenyl]-N-methyl-4-({5-methyl-2-[methyl(methyl-sulfonyl)amino]benzyl}amino)-1H-pyrazolo[4,3-c]pyridine-3-carboxamide] are 8.7 nM, 36.9 nM, 207 nM and 229 nM.
In the same order, the values of `CCc1cc(O)c(F)cc1-c1cc2[nH]ncc2c(N(C)Cc2ccccc2N(CC)S(C)(=O)=O)n1` [Example 145, N-Ethyl-N-[2-({[6-(2-ethyl-5-fluoro-4-hydroxyphenyl)-1H-pyrazolo[4,3-c]pyridin-4-yl](methyl)amino}methyl)phenyl]methanesulfonamide hydrochloride] are 1 nM, 4.5 nM, 16.2 nM and 15.8 nM.
On the same counts, the results for `CCN(c1ccc(O)cc1CNc1nc(-c2cc(F)c(O)cc2CC(F)(F)F)cc2[nH]nc(C(=O)NC)c12)S(C)(=O)=O` [Example 34, 4-({2-[ethyl(methyl-sulfonyl)amino]-5-hydroxybenzyl}amino)-6-[5-fluoro-4-hydroxy-2-(2,2,2-trifluoroethyl)phenyl]-N-methyl-1H-pyrazolo[4,3-c]pyridine-3-carboxamide] are 5.1 nM, 27.8 nM, 98.4 nM and 24.6 nM.
Consider `CNC(=O)c1n[nH]c2cc(-c3cc(F)c(O)cc3CC(F)(F)F)nc(NCC(C)C)c12` [Example 16, 6-[5-fluoro-4-hydroxy-2-(2,2,2-trifluoroethyl)phenyl]-N-methyl-4-[(2-methylpropyl)amino]-1H-pyrazolo[4,3-c]pyridine-3-carboxamide], for which the IC50 was found to be 6.3 nM against JAK1, 23 nM on JAK2, 131 nM against JAK3 and 66 nM against TYK2.
In the same order, the values of `CCc1cc(O)ccc1-c1cc2[nH]ncc2c(N2CC(C)(O)C2)n1` [Example 115, 1-[6-(2-ethyl-4-hydroxyphenyl)-1H-pyrazolo[4,3-c]pyridin-4-yl]-3-methylazetidin-3-ol formate] are 4.3 nM, 10.1 nM, 16.8 nM and 229 nM.
In the same order, the values of `CN(c1ccc(O)cc1CNc1nc(-c2cc(F)c(O)cc2CC(F)(F)F)cc2[nH]nc(C(N)=O)c12)S(C)(=O)=O` [Example 92, 6-[5-Fluoro-4-hydroxy-2-(2,2,2-trifluoroethyl)phenyl]-4-({5-hydroxy-2-[methyl(methylsulfonyl)amino]benzyl}amino)-1H-pyrazolo[4,3-c]pyridine-3-carboxamide] are 2.1 nM, 13.5 nM, 45.7 nM and 14.5 nM.
In the same order, the values of `CCN(c1ccc(O)cc1CNc1nc(-c2cc(F)c(O)cc2CC(F)(F)F)cc2[nH]nc(C(=O)NC)c12)S(=O)(=O)c1ccccc1` [Example 36, 4-({2-[ethyl(phenyl-sulfonyl)amino]-5-hydroxybenzyl}amino)-6-[5-fluoro-4-hydroxy-2-(2,2,2-trifluoroethyl)phenyl]-N-methyl-1H-pyrazolo[4,3-c]pyridine-3-carboxamide] are 75 nM, 401 nM, 1230 nM and 364 nM.
Regarding `CCc1cc(O)c(F)cc1-c1cc2[nH]nc(C(=O)NC)c2c(NCc2cc(F)ccc2N(C)S(C)(=O)=O)n1` [Example 7, 6-(2-ethyl-5-fluoro-4-hydroxyphenyl)-4-({5-fluoro-2-[methyl(methyl-sulfonyl)amino]benzyl}amino)-N-methyl-1H-pyrazolo[4,3-c]pyridine-3-carboxamide], the IC50 against JAK1 amounted to 1.7 nM; on JAK2, 9.2 nM; at JAK3 it was 49 nM; on TYK2, 6.5 nM.
On the same counts, the results for `CCN(c1nccnc1CNc1nc(-c2cc(F)c(O)cc2CC(F)(F)F)cc2[nH]nc(C(N)=O)c12)S(C)(=O)=O` [Example 80, 4-[({3-[ethyl(methylsulfonyl)amino]pyrazin-2-yl}methyl)amino]-6-[5-fluoro-4-hydroxy-2-(2,2,2-trifluoroethyl)phenyl]-1H-pyrazolo[4,3-c]pyridine-3-carboxamide] are 2.9 nM, 16.2 nM, 49.2 nM and 167 nM.
Turning to `CCc1cc(O)c(F)cc1-c1cc2[nH]nc(C(=O)NC)c2c(N[C@@H](C)c2ccccc2N(C)S(C)(=O)=O)n1` [Example 39, 6-(2-Ethyl-5-fluoro-4-hydroxyphenyl)-N-methyl-4-{[(1S)-1-{2-[methyl(methylsulfonyl)amino]phenyl}ethyl]amino}-1H-pyrazolo[4,3-c]pyridine-3-carboxamide], the IC50 at JAK1 came to 32.3 nM; against JAK2, 48.2 nM; on JAK3, 278 nM; against TYK2, 320 nM.
For `CCc1cc(O)c(F)cc1-c1cc2[nH]nc(-c3nc(C)c[nH]3)c2c(NCc2ccccc2N(C)S(C)(=O)=O)n1` [Example 159, N-[2-({[6-(2-Ethyl-5-fluoro-4-hydroxyphenyl)-3-(4-methyl-1H-imidazol-2-yl)-1H-pyrazolo[4,3-c]pyridin-4-yl]amino}methyl)phenyl]-N-methylmethanesulfonamide], the IC50 on JAK1 was determined as 4.3 nM; on JAK2 it was 18.5 nM; against JAK3, 83.3 nM; at TYK2 it was 16.1 nM.
In the same order, the values of `CCc1cc(O)c(F)cc1-c1cc2[nH]ncc2c(N(CC)Cc2cc(C)ccc2N(C)S(C)(=O)=O)n1` [Example 143, N-[2-({ethyl[6-(2-ethyl-5-fluoro-4-hydroxyphenyl)-1H-pyrazolo[4,3-c]pyridin-4-yl]amino}methyl)-4-methylphenyl]-N-methylmethanesulfonamide] are 40.4 nM, 43.6 nM, 122 nM and 4660 nM.
For `CN(c1ncc(Cl)cc1CNc1nc(-c2cc(F)c(O)cc2CC(F)(F)F)cc2[nH]nc(C(N)=O)c12)S(C)(=O)=O` [Example 72, 4-[({5-chloro-2-[methyl(methylsulfonyl)amino]pyridin-3-yl}methyl)amino]-6-[5-fluoro-4-hydroxy-2-(2,2,2-trifluoroethyl)phenyl]-1H-pyrazolo[4,3-c]pyridine-3-carboxamide], the IC50 was 44.8 nM against JAK1, 135 nM on JAK2, 198 nM on JAK3 and 3450 nM on TYK2.
